pIC50: −log10 of the molar value. Counter-ions that a name gives are not always drawn. Like-named read-outs stand apart in the source and are kept apart here.

For one data set, the target named is Na+, K+-ATPase (Canis lupus familiaris, UniProt P50997). As to the kind of experiment: biochemical. More on the design: species or system dog.
The subject of a further data set is anesthetized guinea-pig. The data set is described as follows: Inotropic effect and lethal dose, slow intravenous infusion (over 90 minutes) in anesthetized guinea-pig. To be noted: for ED80 / ED (max) / Emax: Cavia porcellus, iv, 1.5 h; for ED80: read-out: ED80 (inotropic potency, dose increasing +dP/dTmax by 80%); for ED (max): read-out: EDmax (dose inducing maximum positive inotropic effect); for Emax: read-out: Emax % increase in +dP/dTmax; for Maximum dose infused: maximum dose infused in the survived animals.

The mark [1] stands for this setting: dog kidney enzyme, read-out: Na+, K+-ATPase Inhibition IC50.
[2] abbreviates: read-out: Na+, K+-ATPase Inhibition IC50.

As a reminder, the pIC50 is the IC50 on a negative log10 scale, so that one unit is a factor of ten. `C/C=C1\C[C@@H]2[C@H](CC[C@]3(C)C(=O)CC[C@@H]23)[C@@]2(C)CCC(=NOCCN)C[C@H]12` (mixture of isomers) [I-bg, (E,Z) 3-(2-Aminoethoxyimino)-6-(E)-ethylidenandrostan-17-one hydrochloride] gave a pIC50 against Na+, K+-ATPase (Na+, K+-ATPase Inhibition IC50) of 5.96.
In the case of `CC12CCC3C(C(=O)C(CO)C4CC(=NOCCN)CCC43C)C1CCC2=O` (mixture of isomers) [I-cd, (E,Z) 3-(2-Aminoethoxyimino)-6α-hydroxymethylandrostane-7,17-dione hydrochloride], the pIC50 at Na+, K+-ATPase (setting [1]) is 7.92.
`CNCCCON=C1CCC2(C)C(C1)CC1(CC1)C1C3CCC(=O)C3(C)CCC12` (mixture of isomers) [I-cv, (E,Z) 3-(3-N-Methylaminopropoxyimino)-7-(spirocyclopropane)androstan-17-one hydrochloride]: the pIC50 at Na+, K+-ATPase (setting [1]) was 6.13.
In the case of `C[C@]12CCC(=NOCCN)CC1C1(CO1)C[C@@H]1[C@@H]2CC[C@]2(C)C(=O)CC[C@@H]12` (stereo partly drawn) [I-bc, (E,Z)-3-(2-Aminoethoxyimino)androstane-6(R)-(spiro-2′-oxirane)-17-one hydrochloride], at Na+, K+-ATPase (setting [2]), the pIC50 was 6.04.
Still for that read-out and setting: the value for `CNCCON=C1CC[C@@]2(C)C(C1)C(=NOC)C[C@@H]1[C@@H]2CC[C@]2(C)C(=O)CC[C@@H]12` (some centres unmarked) [I-ce, (E,Z) 3-(2-N-Methylaminoethoxyimino)-6-(E)-methoxyiminoandrostan-17-one hydrochloride] was 6.19.
For the compound `COCC1CC2CC(=NOCCN)CCC2(C)C2CCC3(C)C(=O)CCC3C12` (mixture of isomers) [I-ed, (E,Z) 3-(2-Aminoethoxyimino)-7α-methoxymethylandrostane-17-one hydrochloride], on Na+, K+-ATPase (setting [1]), the negative logarithm of the IC50 (pIC50) is 4.42.
As to “3α-(3-Aminopropylthio)-6-(E)-hydroxyiminoandrostane-17-one hemifumarate [I-dw]”, the pIC50 at Na+, K+-ATPase (setting [2]) is 6.07.
Consider `CC(=O)NC[C@H]1C[C@@H]2[C@H](CC[C@]3(C)C(=O)CC[C@@H]23)[C@@]2(C)CCC(=NOCCN)CC12` (stereo partly drawn) [I-bm, (E,Z) 3-(2-Aminoethoxyimino)-6α-acetamidomethylandrostan-17-one hydrochloride], for which the pIC50 at Na+, K+-ATPase (setting [2]) is 5.44.
In the case of `C=C1CC2CC(=NOCCN)CCC2(C)C2CCC3(C)C(=O)CCC3C12` (mixture of isomers) [I-bx, (E,Z) 3-(2-Aminoethoxyimino)-7-methyleneandrostane-17-one hydrochloride], at Na+, K+-ATPase (Na+, K+-ATPase Inhibition IC50), the pIC50 was 6.40.
On to `C=C1C[C@@H]2[C@H](CC[C@]3(C)C(=O)CC[C@@H]23)[C@@]2(C)CC[C@@H](SCCCN)CC12` (stereo partly drawn) [I-dz, 3α-(3-Aminopropylthio)-6-methyleneandrostane-17-one fumarate], for which the pIC50 on Na+, K+-ATPase (setting [1]) is 5.82.
For `C[C@H]1O[C@@H](O[C@H]2[C@@H](O)C[C@H](O[C@H]3[C@@H](O)C[C@H](O[C@H]4CC[C@@]5(C)[C@H](CC[C@@H]6[C@@H]5C[C@@H](O)[C@]5(C)[C@@H](C7=CC(=O)OC7)CC[C@]65O)C4)O[C@@H]3C)O[C@@H]2C)C[C@H](O)[C@@H]1O` [digoxin, reference compound], in the data set on anesthetized guinea-pig, the ED80 was determined as 0.29 µmol/kg, the ED (max) is 0.65 µmol/kg, the Emax stood at 158% and the Maximum dose infused stood at 1.16 µmol/kg.
At Na+, K+-ATPase (Na+, K+-ATPase Inhibition IC50), `CC12CCC3C(C(=C(F)F)CC4CC(=NOCCN)CCC43C)C1CCC2=O` (mixture of isomers) [I-ep, (E,Z) 3-(2-Aminoethoxyimino)-7-difluoromethyleneandrostane-17-one hydrochloride] had a pIC50 of 7.06.
`C[C@]12CCC(=NOCCN)CC1C[C@@H](NC=O)[C@@H]1[C@@H]2CC[C@]2(C)C(=O)CC[C@@H]12` (stereo partly drawn) [I-bw, (E,Z)-3-(2-Aminoethoxyimino)-7α-formamidoandrostane-3,17-dione hydrochloride]: on Na+, K+-ATPase (setting [2]), the pIC50 is 5.22.
Take `C[C@]12CC[C@@H](/C=C\CCCCN)CC1/C(=N/O)C[C@@H]1[C@@H]2CC[C@]2(C)C(=O)CC[C@@H]12` (stereo partly drawn) [I-dj, 3α-(6-Aminohex-1-(Z)-enyl)-6-(E)-hydroxyiminoandrostan-17-one fumarate]: the negative-log IC50 (pIC50) at Na+, K+-ATPase (setting [2]) was 5.89.
Turning to `CNCCCOC1CCC2(C)C(C1)C(CO)CC1C3CCC(=O)C3(C)CCC12` (stereo not drawn) [I-du, 3β-(3-N-Methylaminopropoxy)-6α-hydroxymethylandrostane-17-one fumarate], the pIC50 at Na+, K+-ATPase (setting [1]) is 5.96.
As to `CC12CCC3C(CC(C(=O)O)C4CC(=NOCCN)CCC43C)C1CCC2=O` (mixture of isomers) [I-ar, (E,Z) 3-(2-Aminoethoxyimino)-6α-carboxyandrostan-17-one hydrochloride], the pIC50 at Na+, K+-ATPase (setting [1]) was 4.80.
Take `C=C1C[C@@H]2[C@H](CC[C@]3(C)C(=O)CC[C@@H]23)[C@@]2(C)CC[C@@H](SCCCNC)C[C@H]12` [I-ea, 3α-(3-N-Methylaminopropylthio)-6-methyleneandrostane-17-one fumarate]: at Na+, K+-ATPase (setting [1]), the pIC50 is 5.55.
At Na+, K+-ATPase (Na+, K+-ATPase Inhibition IC50), `C[C@H]1C[C@H]2CC(=NOCCN)CC[C@]2(C)[C@H]2CC[C@]3(C)C(=O)CC[C@H]3[C@H]12` (mixture of isomers) [I-by, (E,Z) 3-(2-Aminoethoxyimino)-7β-methylandrostane-17-dione hydrochloride] showed a pIC50 of 6.19.
As to `COC(=O)C=C1CC2C3CCC(=O)C3(C)CCC2C2(C)CCC(=NOCCN)CC12` (mixture of isomers) [I-bk, Methyl [3-(E,Z)-(2-aminoethoxyimino)-17-oxoandrostane-6-(E)-ylidene]-acetate hydrochloride], at Na+, K+-ATPase (setting [1]), the pIC50 was 4.19.
At Na+, K+-ATPase (Na+, K+-ATPase Inhibition IC50), `CC12CCC3C(CC(=CC#N)C4CC(=NOCCN)CCC43C)C1CCC2=O` (centres unmarked) [I-bi, (E) 3-(2-Aminoethoxyimino)-17-oxoandrostane-6-(E)-ylideneacetonitrile hydrochloride] showed a pIC50 of 5.77.
On to `CNCCCON=C1CCC2(C)C(C1)C(CO)C(O)C1C3CCC(=O)C3(C)CCC12` (mixture of isomers) [I-ek, (E,Z) 3-(3-N-Methylaminopropoxyimino)-6α-hydroxymethyl-7α-hydroxyandrostane-17-one hydrochloride], for which, at Na+, K+-ATPase (setting [1]), the negative logarithm of the IC50 (pIC50) is 6.49.
Turning to `C=C1C[C@H]2[C@@H]3CCC(=O)[C@@]3(C)CC[C@@H]2[C@@]2(C)CCC(=NOCCNC)C[C@]12O` (mixture of isomers) [I-cg, (E,Z) 3-(2-N-Methylaminoethoxyimino)-5α-hydroxy-6-methylenandrostan-17-one hydrochloride], the negative logarithm of the IC50 (pIC50) at Na+, K+-ATPase (Na+, K+-ATPase Inhibition IC50) is 5.59.
Same read-out and setting: next, `CC12CCC3C(CC(=CCO)C4CC(=NOCCN)CCC43C)C1CCC2=O` (mixture of isomers) [I-bj, (E,Z) 3-(2-Aminoethoxyimino)-6-(E)-[2-hydroxyethylidene]androstan-17-one hydrochloride]: 6.11.
Take `C[C@]12CCC(=NOCCN)CC1C[C@@H](O)[C@@H]1[C@@H]2CC[C@]2(C)C(=O)CC[C@@H]12` (stereo partly drawn) [I-bv, (E,Z) 3-(2-Aminoethoxyimino)-7α-hydroxyandrostane-17-one fumarate]: the negative logarithm of the IC50 (pIC50) at Na+, K+-ATPase (setting [2]) is 6.28.
For `CNCCCON=C1CC[C@]2(C)[C@H]3CC[C@]4(C)C(=O)CC[C@H]4[C@@H]3C/C(=N\O)[C@@]2(O)C1` (mixture of isomers) [I-cr, (E,Z) 3-(3-N-Methylaminopropoxyimino)-5α-hydroxy-6-(E)-hydroxyiminoandrostan-17-one hydrochloride], in the data set on anesthetized guinea-pig, the ED80 amounted to 1.21 µmol/kg, the ED (max) was 11.8 µmol/kg, the Emax came to 180% and the Maximum dose infused was determined as 50.4 µmol/kg. Moreover, the “% decrease from Emax after 20 min from the end of the infusion” value in the data set with anesthetized guinea-pig (duration of the inotropic effect) amounted to 47%.

For the origin of these results see patent US8609644B2, “Amino derivatives of androstanes and androstenes as medicaments for cardiovascular disorders” (priority 2006, dated 2013).
